From patent US7297759B2, “Peptides for increasing transfection efficiency” (Welgene, Inc., priority 2002, dated 2007)

How the values were obtained:
[1] = system: HeLa cells; assay: Luciferase transfection efficiency of triple complex in HeLa cells; format: cell-based; conditions: for luciferase activity for various peptides: DNA:peptide:DP liposomes 1:4:4 (w/w/w), compared to Tat and Sc-Tat control peptides, FIG. 9A
Procedure: In order to test transfection efficiency, the TatC peptide was precomplexed with the pcDNA3-luciferase vector DNA in 50 ul OPTI-MEM medium and was incubated for 5 minutes at room temperature. The DP liposomes was prepared in a 50 ul OPTI-MEM medium and added to the preformed complex of the TatC peptide and pcDNA3-luciferase vector DNA. The ratio of each component in the triple complex of the TatC peptide/DNA/DP liposomes was adjusted to 3:1:5 respectively. The triple complex of TatC peptide/DNA/DP liposomes was incubated for 10 minutes at room temperature and used for transfection into cells. After 5 hr incubation, 300 ul/well of the OPTI-MEM medium containing 20% Fetal Bovine Serum (FBS) was added into each transfection well. Further incubation for 16 hours was carried out before measuring transfection efficiency in luciferase activity using a luciferase assay kit (Promega, USA). To check luciferase activity of the pcDNA3-luciferase vector DNA, the following procedure was adopted. Cells were washed with PBS buffer (without Mg^2+ or Ca^2+) and lysed in 100 μl/well of 1×CCLR solution (Cell culture Lysis Reagent, 25 mM Tris-phosphate [pH 7.8], 2 mM DTT, 2 mM 1,2-diaminocyclohexane-N,N,N′,N′-tetraacetic acid, 10% glycerol, 1% Triton X-100). Cell lysates was centrifuged at 12,000×g for 1 minute and 50 ul supernatant was carefully harvested without disturbing the cell pellet. The cell lysates then mixed with 20 μl Luciferase Assay reagent. Luciferase activity was tested using a luminometer (Berthold detection systems, Sirius, Germany). As a negative control, the DP liposomes alone. […]
To examine transfection efficiency in the presence or absence of serum, the TatC/DNA(pcDNA3-luc)/DP liposomes triple complex of the present invention was transfected into HeLa and K562 cells in a medium with or without 10% FBS (FIG. 13A and B). A complex of DNA and liposomes was used as a negative control.

[2] = system: kidney of SD rats; assay: In vivo delivery of LacZ plasmid by retrograde ureteral injection, X-gal staining of kidney sections; set-up: species or system rat; conditions: TatC:DNA:DP=4:1:4, retrograde injection, male SD rats, compared to DNA/liposome or DNA alone, FIG. 16
Procedure: To test the transfection efficiency of the peptide/DNA/liposomes triple complex in vivo, the following experiment was performed. Male Sprague-Dawley (SD) rats (Hamamatsu, Shizuoka, Japan) were supplied from SLC and were housed in groups of 6 with free access to standard chow and water. Male SD rats, weighing 200-250 g, were used in these experiments. After anesthesia by the intraperitoneal injection of pentobarbital (5 mg/100 g body weight), the left kidney was exposed via an abdominal midline incision. Rats were subjected to ureteral ligation proximal to the left kidney, which was followed by retrograde injection of the triple complex (TatC: DNA: DP=4:1:4) using a 24 gauge catheter syringe. Kidneys were harvested 24 hours after injection of the triple complex. and embedded in a Tissue-Tek™ OCT compound (Miles, Elkhart, Ill.) under liquid nitrogen. Tissue blocks of the perfusion-fixed kidney with 4% paraformaldehyde were cryosectioned to 10 μm thickness and mounted on Poly-Prep™ slides (Sigma, St. Louise, Mo.). After dissection of individual kidneys, kidney sections were fixed with 0.05% glutaraldehyde in PBS by perfusion for 15 min, and incubated in X-gal solution (1.5 mM potassium ferricyanide, 1.5 mM potassium ferrocyanide, and 1% X-gal) at 37° C. for 4 h. Tissue sections of 4 μm were counterstained with hematoxylin and examined using a microscope at 400 fold magnification.

[3] = system: K562 cells; assay: Luciferase transfection efficiency of triple complex in K562 cells; format: cell-based; conditions: TatC/DNA(pcDNA3-luc)/DP liposomes, FIG. 13B
Procedure: In order to test transfection efficiency, the TatC peptide was precomplexed with the pcDNA3-luciferase vector DNA in 50 ul OPTI-MEM medium and was incubated for 5 minutes at room temperature. The DP liposomes was prepared in a 50 ul OPTI-MEM medium and added to the preformed complex of the TatC peptide and pcDNA3-luciferase vector DNA. The ratio of each component in the triple complex of the TatC peptide/DNA/DP liposomes was adjusted to 3:1:5 respectively. The triple complex of TatC peptide/DNA/DP liposomes was incubated for 10 minutes at room temperature and used for transfection into cells. After 5 hr incubation, 300 ul/well of the OPTI-MEM medium containing 20% Fetal Bovine Serum (FBS) was added into each transfection well. Further incubation for 16 hours was carried out before measuring transfection efficiency in luciferase activity using a luciferase assay kit (Promega, USA). To check luciferase activity of the pcDNA3-luciferase vector DNA, the following procedure was adopted. […]
In order to test transfection efficiency of the triple complex, TatC peptide and liposomes (DP or LFA) were mixed with plasmid DNA in various ratios. […] Luciferase activity was then measured as described in Example 3.1.
The TatC peptide shown in Example 2.1 was modified with RGD amino acid sequence at both N-and C-termini. […] Luciferase activity was measured for each transfected cells as described in Example 3.1. […]

[4] = system: 293, HT-29, HL-60, MCF-7, A549, NC1-H1299, WI-38VA13, HepG2 and Hep3B cells; assay: Luciferase transfection efficiency of triple complex in 9 different cell lines; format: cell-based, human; conditions: various ratios
[5] = system: WRT7/P2 cells; assay: Cellular uptake of FITC-labeled oligonucleotide; format: cell-based, rat; conditions: TatC peptide/DNA/LFA triple complex compared to LFA liposomes alone; FIG. 8
Procedure: Next, transfection efficiency of nucleic acid by the triple complex was tested for oligonucleotides labeled with FITC at both ends. Oligonucleotides were complexed with the TatC peptide and LFA liposomes and were transfected to a rat monocytic cell line, WRT7/P2. The transfected cells were then assayed for FITC-fluorescence. We observed that cellular uptake of the oligonucleotides with the TatC peptide/DNA/LFA triple complex was much higher than delivered with LFA liposomes alone (FIG. 8). […] Therefore, the TatC peptide delivery system of the present invention may be effectively utilized for efficient delivery into cells regardless of the types of DNA to be delivered.

[6] = system: cells; assay: Luciferase transfection efficiency of TatC peptide/DNA/cationic liposome triple complex (FIG. 1, FIG. 2); format: cell-based
Procedure: In order to test transfection efficiency, the TatC peptide was precomplexed with the pcDNA3-luciferase vector DNA in 50 ul OPTI-MEM medium and was incubated for 5 minutes at room temperature. The DP liposomes was prepared in a 50 ul OPTI-MEM medium and added to the preformed complex of the TatC peptide and pcDNA3-luciferase vector DNA. The ratio of each component in the triple complex of the TatC peptide/DNA/DP liposomes was adjusted to 3:1:5 respectively. The triple complex of TatC peptide/DNA/DP liposomes was incubated for 10 minutes at room temperature and used for transfection into cells. After 5 hr incubation, 300 ul/well of the OPTI-MEM medium containing 20% Fetal Bovine Serum (FBS) was added into each transfection well. Further incubation for 16 hours was carried out before measuring transfection efficiency in luciferase activity using a luciferase assay kit (Promega, USA). To check luciferase activity of the pcDNA3-luciferase vector DNA, the following procedure was adopted. Cells were washed with PBS buffer (without Mg^2+ or Ca^2+) and lysed in 100 μl/well of 1×CCLR solution (Cell culture Lysis Reagent, 25 mM Tris-phosphate [pH 7.8], 2 mM DTT, 2 mM 1,2-diaminocyclohexane-N,N,N′,N′-tetraacetic acid, 10% glycerol, 1% Triton X-100). Cell lysates was centrifuged at 12,000×g for 1 minute and 50 ul supernatant was carefully harvested without disturbing the cell pellet. The cell lysates then mixed with 20 μl Luciferase Assay reagent. Luciferase activity was tested using a luminometer (Berthold detection systems, Sirius, Germany). As a negative control, the DP liposomes alone.
The TatC peptide/DNA (pcDNA3-luciferase vector)/LFA liposome complex was prepared as described in Example 3.1. Transfection was carried out according to the manufacturer's recommended protocol (Life Technologies, USA), and was tested for luciferase activity.
To deteremine if enhanced transfection efficiency could be attained, a TatC Peptide/DNA/cationic liposomes triple complex were formed by mixing them in different order. […]

## RKKRRQRRRPPQCRGDRGD (TatC-RGD-RGD)
[1]
  luciferase activity for various peptides: markedly higher luciferase activity

## RGDRKKRRQRRRPPQCRGD (RGD-TatC-RGD)
[1]
  luciferase activity for various peptides: markedly higher luciferase activity

## RKKRRQRRRPPQC (TatC)
[2]
  expression of the β-galactosidase gene in kidney: observed only in the group treated with the complex composed of TatC/DNA/liposomes
[3]
  luciferase activity with or without 10% FBS: higher in medium containing serum
[4]; triple complex TatC peptide/DNA/DP, compared to DP liposomes alone, FIG. 6
  luciferase activity: remarkably higher luciferase activity
[4]; triple complex TatC peptide/DNA/LFA, compared to liposomes alone, FIG. 7
  luciferase activity: Analogous results
[1]
  luciferase activity for various peptides: markedly higher luciferase activity
[1]; TatC/DNA(pcDNA3-luc)/DP liposomes, HeLa, FIG. 13A
  luciferase activity with or without 10% FBS: higher in medium containing serum
[5]
  cellular uptake of FITC-labeled oligonucleotides (FITC-fluorescence): much higher
[6]; TatC peptide and DNA mixed first, then cationic liposome (LFA), compared with other mixing orders, FIG. 2
  transfection efficiency according to mixing order: highest
[6]; TatC peptide/DNA/LFA liposome complex compared to LFA liposomes only, FIG. 1
  transfection activity (luciferase): higher transfection activity
[6]; triple complex TatC peptide/DNA/DP liposomes 3:1:5, compared to DP liposomes alone, FIG. 1
  luciferase activity: significantly enhances luciferase activity

## RRKRQRKRRPQP (Scrambled Tat(Sc-Tat)) [scrambled Tat peptide with random disturbance of the NLS motif, negative control, reference compound]
[1]
  luciferase activity for various peptides: comparably low

## RKKRRQRRRPPQ (Tat) [Tat peptide containing the NLS motif without any modification, control, reference compound]
[1]
  luciferase activity for various peptides: comparably low
